According to patent US11214561B2, “Histone methyltransferase EZH2 inhibitor, preparation method and pharmaceutical use thereof” (ANCUREALL PHARMACEUTICAL (SHANGHAI) CO., LTD., priority 2017, dated 2022):

Legend:
Pfeiffer (EZH2 A677G) = test: In vitro 50% growth inhibition (GI50), MTT/CCK8, Pfeiffer cells; type: cell-based, Human; conditions: for growth inhibitory activity / GI50 level against Pfeiffer, in words: EZH2 A677G mutant cells Pfeiffer; for GI50: Homo sapiens, Pfeiffer, 240 h, Drug treatment for 10 days
From the text: (§1) In the present invention, a representative tumor cell line was selected to determine the cell growth inhibition activity of the present compound. Cell culture conditions and methods were in accordance with the requirements for each cell lines. The cells were subcultured in vitro for less than 3 generations each time, and as required, monoclone purification and identification of cell lines could be carried out.
(§2) The cell culture media used were RPMI1640 (Gibco) comprising 5-20% of fetal bovine serum (Gibco), 1% of double-antibiotic and 2 mM of glutamine.
(§3) Suspension culture cells were collected by centrifugation (1700 rpm, 3 minutes), and the supernatant was discarded and the cells were counted. According to each cell growth cycle, different concentrations of cells were prepared (1-10×10^4 cells per ml) and added to 96-well plates (Corning) with 100 μl per well, and then incubated overnight at 37° C., 5% CO2. The next day, the test compound was added to the cultured cells (2 wells in parallel). The final concentration of the solvent was less than 1/1,000. The cells were further cultured for 6 to 12 days and assayed by MTT.
(§4) The compound was stored at a concentration of 10 mM at −20° C. and diluted to two-fold or 10-fold series prior to use.
(§5) For the suspension culture cells, CCK8 was directly added to 10% of the final concentration. The cells were continually incubated for […].
(§6) The experiments were repeated 3 times and a statistical analysis of data was conducted.

Karpas-422 (EZH2 Y641N) = test: In vitro 50% growth inhibition (GI50), MTT/CCK8, Karpas-422 cells; type: cell-based; conditions: Homo sapiens, KARPAS-422, 144 h; Drug treatment for 6 days
From the text: as §1, §2, §3, §4, §5, §6

SU-DHL-8 (EZH2 WT) = test: In vitro 50% growth inhibition (GI50), MTT/CCK8, SU-DHL-8 cells; type: cell-based; conditions: Homo sapiens, SU-DHL-8, 144 h; Drug treatment for 6 days
From the text: as §1, §2, §3, §4, §5, §6

Row | SMILES | growth inhibitory activity / GI50 level against Pfeiffer, in words (Pfeiffer (EZH2 A677G)) | GI50 (Pfeiffer (EZH2 A677G)) [µM] | GI50 (Karpas-422 (EZH2 Y641N)) [µM] | GI50 (SU-DHL-8 (EZH2 WT)) [µM]
1 | C=CC(=O)N1CCC(N(CC)c2cc(-c3ccc(CN4CCC(OCCOC)CC4)cc3)cc(C(=O)NCc3c(C)cc(C)[nH]c3=O)c2C)CC1 [Example 77, N-(4,6-dimethyl-2-oxo-1,2-dihydro-pyridin-3-ylmethyl)-5-[(1-acryloyl-piperidin-4-yl)-ethyl-amino]-4-methyl-4′-[4-(2-methoxyethyloxy)-piperidin-1-ylmethyl]-[1,1′-biphenyl]-3-carboxamide] | subnanomolar level | < 0.001 | 0.01 to 0.1 | > 1
2 | C=CC(=O)N1CCC(N(CC)c2cc(-c3ccc(CN4CCOCC4)c(F)c3)cc(C(=O)NCc3c(C)cc(C)[nH]c3=O)c2C)C1 (stereo not drawn) [Example 23, N-(4,6-dimethyl-2-oxo-1,2-dihydro-pyridin-3-ylmethyl)-5-[(1-acryloyl-pyrrolidin-3-yl)-ethyl-amino]-3′-fluoro-4′-(morpholin-4-ylmethyl)-4-methyl-biphenyl-3-carboxamide] |  | 0.001 to 0.01 | 0.01 to 0.1 | > 1
3 | C=CC(=O)N1CCC(N(CC)c2cc(-c3ccc(CN(C)C)cc3)cc(C(=O)NCc3c(C)cc(C)[nH]c3=O)c2C)C1 (stereo not drawn) [Example 19, N-(4,6-dimethyl-2-oxo-1,2-dihydro-pyridin-3-ylmethyl)-5-[(1-acryloyl-pyrrolidin-3-yl)-ethyl-amino]-4′-(dimethylaminomethyl)-4-methyl-biphenyl-3-carboxamide] |  | 0.01 to 0.1 | 0.1 to 1 | > 1
4 | C=CC(=O)N1CCC(N(CC)c2cc(C#CCN3CCOCC3)cc(C(=O)NCc3c(C)cc(C)[nH]c3=O)c2C)C1 (stereo not drawn) [Example 51, N-(4,6-dimethyl-2-oxo-1,2-dihydro-pyridin-3-ylmethyl)-3-[(1-acryloyl-pyrrolidin-3-yl)-ethyl-amino]-2-methyl-5-[3-(morpholin-4-yl)-propyn-1-yl]-benzamide] |  | 0.001 to 0.01 | 0.01 to 0.1 | > 1
5 | C=CC(=O)N1CCC(N(CC)c2cc(-c3cccc(CN4CCCCC4)c3)cc(C(=O)NCc3c(C)cc(C)[nH]c3=O)c2C)C1 (stereo not drawn) [Example 31, N-(4,6-dimethyl-2-oxo-1,2-dihydro-pyridin-3-ylmethyl)-5-[(1-acryloyl-pyrrolidin-3-yl)-ethyl-amino]-4-methyl-3′-(piperidin-1-ylmethyl)-[1,1′-biphenyl]-3-carboxamide] |  | 0.001 to 0.01 | 0.01 to 0.1 | > 1
6 | C=CC(=O)N1CCC(N(CC)c2cc(-c3ccc(CN4CCOCC4)c(Cl)c3)cc(C(=O)NCc3c(C)cc(C)[nH]c3=O)c2C)CC1 [Example 71, N-(4,6-dimethyl-2-oxo-1,2-dihydro-pyridin-3-ylmethyl)-5-[(1-acryloyl-piperidin-4-yl)-ethyl-amino]-3′-chloro-4-methyl-4′-(morpholin-4-ylmethyl)-[1,1′-biphenyl]-3-carboxamide] |  | 0.001 to 0.01 | 0.01 to 0.1 | > 1
7 | C=CC(=O)N1CCC(N(CC)c2cc(Cl)cc(C(=O)NCc3c(C)cc(C)[nH]c3=O)c2C)C1 (stereo not drawn) [Example 3, 3-[(1-acryloyl-pyrrolidin-3-yl)-ethyl-amino]-5-chloro-N-(4,6-dimethyl-2-oxo-1,2-dihydro-pyridin-3-ylmethyl)-2-methyl-benzamide] |  | 0.001 to 0.01 | 0.01 to 0.1 | > 1
8 | C=CC(=O)N1CCC(N(CC)c2cc(-c3ccc(CN4CCC5(CCCO5)CC4)cc3)cc(C(=O)NCc3c(C)cc(C)[nH]c3=O)c2C)CC1 [Example 87, N-(4,6-dimethyl-2-oxo-1,2-dihydro-pyridin-3-ylmethyl)-5-[(1-acryloyl-piperidin-4-yl)-ethyl-amino]-4-methyl-4′-(1-oxa-8-aza-spiro[4.5]decan-8-ylmethyl)-[1,1′-biphenyl]-3-carboxamide] | subnanomolar level | < 0.001 | 0.01 to 0.1 | > 1
9 | C=CC(=O)N1CCC(N(CC)c2cc(F)cc(C(=O)NCc3c(C)cc(C)[nH]c3=O)c2C)C1 (stereo not drawn) [Example 2, 3-[(1-acryloyl-pyrrolidin-3-yl)-ethyl-amino]-5-fluoro-N-(4,6-dimethyl-2-oxo-1,2-dihydro-pyridin-3-ylmethyl)-2-methyl-benzamide] |  | 0.01 to 0.1 | 0.01 to 0.1 | > 1
10 | C=CC(=O)N1CCC(N(CC)c2cc(-c3ccc(CN4CC(OC)C4)cc3)cc(C(=O)NCc3c(C)cc(C)[nH]c3=O)c2C)CC1 [Example 76, N-(4,6-dimethyl-2-oxo-1,2-dihydro-pyridin-3-ylmethyl)-5-[(1-acryloyl-piperidin-4-yl)-ethyl-amino]-4-methyl-4′-(3-methoxy-1-azetidinylmethyl)-[1,1′-biphenyl]-3-carboxamide] |  | 0.001 to 0.01 | 0.01 to 0.1 | > 1
11 | C=CC(=O)N1CCC(N(CC)c2cc(-c3ccc(N4CCN(C)CC4)nc3)cc(C(=O)NCc3c(C)cc(C)[nH]c3=O)c2C)C1 (stereo not drawn) [Example 53, N-(4,6-dimethyl-2-oxo-1,2-dihydro-pyridin-3-ylmethyl)-3-[(1-acryloyl-pyrrolidin-3-yl)-ethyl-amino]-2-methyl-5-[6-(4-methylpiperazin-1-yl)-pyridin-3-yl]-benzamide] |  | 0.001 to 0.01 | 0.01 to 0.1 | > 1
12 | C=CC(=O)N1CCC(N(CC)c2cc(-c3ccc(CN4CCCCC4)cc3)cc(C(=O)NCc3c(C)cc(C)[nH]c3=O)c2C)C1 (stereo not drawn) [Example 18, N-(4,6-dimethyl-2-oxo-1,2-dihydro-pyridin-3-ylmethyl)-5-[(1-acryloyl-pyrrolidin-3-yl)-ethyl-amino]-4′-(piperidin-1-ylmethyl)-4-methyl-biphenyl-3-carboxamide] |  | 0.001 to 0.01 | 0.01 to 0.1 | > 1
13 | C=CC(=O)N1CCC(N(CC)c2cc(-c3cccc(CN4CCOCC4)c3)cc(C(=O)NCc3c(C)cc(C)[nH]c3=O)c2C)CC1 [Example 70, N-(4,6-dimethyl-2-oxo-1,2-dihydro-pyridin-3-ylmethyl)-5-[(1-acryloyl-piperidin-4-yl)-ethyl-amino]-4-methyl-3′-(morpholin-4-ylmethyl)-[1,1′-biphenyl]-3-carboxamide] |  | 0.001 to 0.01 | 0.01 to 0.1 | > 1
14 | C=CC(=O)N1CCC(N(CCCC)c2cc(Br)cc(C(=O)NCc3c(C)cc(C)[nH]c3=O)c2C)C1 (stereo not drawn) [Example 9, 3-[(1-acryloyl-pyrrolidin-3-yl)-butyl-amino]-5-bromo-N-(4,6-dimethyl-2-oxo-1,2-dihydro-pyridin-3-ylmethyl)-2methyl-benzamide] |  | 0.01 to 0.1 | > 1 | > 1
15 | C=CC(=O)N1CCC(N(CC)c2cc(-c3ccc(CN4CCOCC4)c(F)c3)cc(C(=O)NCc3c(C)cc(C)[nH]c3=O)c2C)CC1 [Example 62, N-(4,6-dimethyl-2-oxo-1,2-dihydro-pyridin-3-ylmethyl)-5-[(1-acryloyl-piperidin-4-yl)-ethyl-amino]-3′-fluoro-4-methyl-4′-(morpholin-4-ylmethyl)-[1,1′-biphenyl]-3-carboxamide] |  | 0.001 to 0.01 | 0.01 to 0.1 | > 1
16 | C=CC(=O)N1CCC(N(CC)c2cc(-c3cccc(CN4CCCN(C)CC4)c3)cc(C(=O)NCc3c(C)cc(C)[nH]c3=O)c2C)CC1 [Example 75, N-(4,6-dimethyl-2-oxo-1,2-dihydro-pyridin-3-ylmethyl)-5-[(1-acryloyl-piperidin-4-yl)-ethyl-amino]-4-methyl-3′-(4-methylhomopiperazin-1-ylmethyl)-[1,1′-biphenyl]-3-carboxamide] |  | 0.001 to 0.01 | 0.01 to 0.1 | > 1
17 | CC#CC(=O)N1CCC(N(CC)c2cc(Br)cc(C(=O)NCc3c(C)cc(C)[nH]c3=O)c2C)C1 (stereo not drawn) [Example 15] |  | 0.001 to 0.01 | 0.01 to 0.1 | > 1
18 | C=CC(=O)N1CCC(N(CC)c2cc(Br)cc(C(=O)NCc3c(C)cc(C)[nH]c3=O)c2C)CC1 [Example 6, 3-[(1-acryloyl-piperidin-4-yl)-ethyl-amino]-5-bromo-N-(4,6-dimethyl-2-oxo-1,2-dihydro-pyridin-3-ylmethyl)-2-methyl-benzamide] |  | 0.001 to 0.01 | 0.01 to 0.1 | > 1
19 | C=CC(=O)N1CCC(N(C)c2cc(Br)cc(C(=O)NCc3c(C)cc(C)[nH]c3=O)c2C)C1 (stereo not drawn) [Example 10, 3-[(1-acryloyl-pyrrolidin-3-yl)-methyl-amino]-5-bromo-N-(4,6-dimethyl-2-oxo-1,2-dihydro-pyridin-3-ylmethyl)-2methyl-benzamide] |  | 0.01 to 0.1 | > 1 | > 1
20 | C=CC(=O)N1CCC(N(CC)c2cc(-c3ccc(CN4CCC(OC)CC4)cc3)cc(C(=O)NCc3c(C)cc(C)[nH]c3=O)c2C)CC1 [Example 65, N-(4,6-dimethyl-2-oxo-1,2-dihydro-pyridin-3-ylmethyl)-5-[(1-acryloyl-piperidin-4-yl)-ethyl-amino]-4-methyl-4′-(4-methoxypiperidin-1-ylmethyl)-[1,1′-biphenyl]-3-carboxamide] | subnanomolar level | < 0.001 | 0.01 to 0.1 | > 1
